{
  "source": "paper PMC6440977",
  "about": "“Nucleoside analogue activators of cyclic AMP-independent protein kinase A of Trypanosoma” (Nature Communications, 2019)",
  "key": {"[1]": {"tested_on": "T. brucei phosphoproteome", "experiment": "Quantitative phosphoproteomics", "format": "cell-based, Trypanosoma brucei", "description": "For each sample, 6 × 10^8 T. brucei cells treated or not with 8 µM 7-cyano-7-deazainosine for 15 min were lysed in 300 µl 4% (w/v) sodium deoxycholate, 0.1 M Tris, pH 8.5 for 5 min at 95 °C (according to the protocol of Humphrey et al.[78]). Samples were sonicated using a Bioruptor (Diagenode) (high power, two cycles of 10 min each, 30 s on/off). Protein concentration was determined by BCA protein assay and samples were adjusted to equal concentrations. Sample preparation and mass spectrometry were exactly carried out as described by Humphrey et al.[78]. MaxQuant 1.5.2.8[79] was used to identify proteins and quantify by LFQ with the following parameters: Database, TriTrypDB-39_TbruceiTREU927_AnnotatedProteins; MS tol, 10 ppm; MS/MS tol, 0.5 Da; Peptide FDR, 0.1; Protein FDR, 0.01 Min. peptide Length, 5; Variable modifications, Oxidation (M), Phosphorylation (STY); Fixed modifications, Carbamidomethyl (C); Peptides for protein quantitation, razor and unique; Min. peptides, 1; Min. ratio count, 2. For proteomic analysis, identified proteins were considered as statistically significant with FDR ≤ 0.05 and s0 = 1 (two-sided Student’s T-test adjusted for multiple comparisons by Benjamini–Hochberg correction, Perseus[80]). […] The mass spectrometry phosphoproteomics data have been deposited to the ProteomeExchange Consortium via the PRIDE partner repository (https://www.ebi.ac.uk/pride/archive) with the dataset identifier PXD012245. GO enrichment analysis was performed in TriTrypDB with default settings and visualized in Revigo (http://revigo.irb.hr). The motif discovery tool MoMo (using the motif-x algorithm) implemented in the MEME suite (http://meme-suite.org/) was used for unbiased motif discovery in the phosphoproteome dataset with the T. brucei TriTrypDB-40_TbruceiTREU927 protein database as background. Enriched sequence logos were visualized using CLC Main Workbench 7 (https://www.qiagenbioinformatics.com/)."}, "T. brucei PKA": {"target": "T. brucei PKA (Trypanosoma brucei brucei, UniProt Q9GU80)", "sequence (Q38DS1 entry or part of it)": "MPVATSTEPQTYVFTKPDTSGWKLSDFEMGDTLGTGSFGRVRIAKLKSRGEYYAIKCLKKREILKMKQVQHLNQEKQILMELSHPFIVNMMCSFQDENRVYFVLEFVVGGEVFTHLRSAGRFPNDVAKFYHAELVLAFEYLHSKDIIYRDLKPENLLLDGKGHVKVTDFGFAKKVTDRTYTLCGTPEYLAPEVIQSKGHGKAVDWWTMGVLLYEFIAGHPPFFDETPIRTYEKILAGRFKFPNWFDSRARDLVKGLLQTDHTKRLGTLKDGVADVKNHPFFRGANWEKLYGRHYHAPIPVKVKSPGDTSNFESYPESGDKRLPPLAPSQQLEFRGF", "sequence (Q38DR5 entry or part of it, further chain)": "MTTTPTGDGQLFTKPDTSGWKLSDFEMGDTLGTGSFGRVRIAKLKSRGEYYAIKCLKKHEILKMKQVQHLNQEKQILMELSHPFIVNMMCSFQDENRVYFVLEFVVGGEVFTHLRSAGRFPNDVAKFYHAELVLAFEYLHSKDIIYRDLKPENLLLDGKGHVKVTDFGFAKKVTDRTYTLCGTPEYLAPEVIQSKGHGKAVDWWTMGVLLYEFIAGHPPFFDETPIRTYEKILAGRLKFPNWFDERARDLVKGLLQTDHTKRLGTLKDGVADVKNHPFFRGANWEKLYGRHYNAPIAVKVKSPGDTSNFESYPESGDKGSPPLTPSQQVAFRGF", "sequence (Q9GU80 entry or part of it)": "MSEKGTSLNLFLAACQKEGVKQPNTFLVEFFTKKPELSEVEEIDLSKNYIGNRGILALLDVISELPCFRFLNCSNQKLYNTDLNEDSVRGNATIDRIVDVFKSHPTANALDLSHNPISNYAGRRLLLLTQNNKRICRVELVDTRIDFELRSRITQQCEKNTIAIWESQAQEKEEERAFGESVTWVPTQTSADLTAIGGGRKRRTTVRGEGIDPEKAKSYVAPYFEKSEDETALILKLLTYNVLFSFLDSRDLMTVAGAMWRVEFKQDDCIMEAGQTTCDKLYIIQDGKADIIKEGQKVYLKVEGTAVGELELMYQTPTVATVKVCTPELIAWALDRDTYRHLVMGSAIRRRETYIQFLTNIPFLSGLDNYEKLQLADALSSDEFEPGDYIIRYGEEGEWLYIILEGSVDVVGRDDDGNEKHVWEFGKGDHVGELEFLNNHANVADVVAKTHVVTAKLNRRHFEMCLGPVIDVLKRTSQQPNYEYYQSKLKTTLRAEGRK", "experiment": "In vivo PKA reporter assay (VASP Ser-157 phosphorylation, western blot);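 also: T. brucei cells expressing human VASP as heterologous PKA substrate, compound exposure at 37 °C, western blot of phospho (50 kDa) versus unphosphorylated (46 kDa) VASP band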", "format": "cell-based"}, "[2]": {"tested_on": "T. brucei ∆pkar/∆pkar (pkar KO) cells", "experiment": "microbe, parasite or virus in culture", "format": "cell-based, Trypanosoma brucei", "details": "Trypanosoma brucei"}, "human PKARIα": {"target": "T1, human PKARIα (Homo sapiens, UniProt P10644)", "T1 construct": "The full length ORFs (amplified with primers introducing the respective); 6xHis followed by TEV site (N); made in house; host or cells: E. coli Rosetta D3", "T1 sequence (P10644 whole entry)": "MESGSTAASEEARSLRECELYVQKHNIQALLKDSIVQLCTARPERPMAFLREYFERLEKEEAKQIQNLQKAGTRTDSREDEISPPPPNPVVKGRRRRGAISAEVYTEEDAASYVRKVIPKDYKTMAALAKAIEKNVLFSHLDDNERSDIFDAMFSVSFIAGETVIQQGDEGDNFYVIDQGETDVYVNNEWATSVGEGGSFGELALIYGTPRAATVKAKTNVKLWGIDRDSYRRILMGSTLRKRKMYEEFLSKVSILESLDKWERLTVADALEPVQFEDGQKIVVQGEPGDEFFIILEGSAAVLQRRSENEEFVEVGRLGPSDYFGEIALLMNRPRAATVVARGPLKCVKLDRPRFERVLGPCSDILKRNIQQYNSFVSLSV", "experiment": "Binding by isothermal titration calorimetry (ITC)"}, "T. brucei PKAR(199–499)": {"target": "T. brucei PKAR(199–499) (Trypanosoma brucei, UniProt Q9GU80)", "sequence (Q9GU80 entry or part of it)": "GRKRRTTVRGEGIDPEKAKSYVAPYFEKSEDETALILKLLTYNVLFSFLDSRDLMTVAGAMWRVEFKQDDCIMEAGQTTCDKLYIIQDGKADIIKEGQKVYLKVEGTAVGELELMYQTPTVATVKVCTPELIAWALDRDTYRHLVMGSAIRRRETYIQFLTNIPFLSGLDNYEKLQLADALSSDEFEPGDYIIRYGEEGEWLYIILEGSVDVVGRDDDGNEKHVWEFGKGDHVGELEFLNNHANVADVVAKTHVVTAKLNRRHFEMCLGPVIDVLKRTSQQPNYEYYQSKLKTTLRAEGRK", "experiment": "biochemical", "format": "binding", "set-up": "Thermodynamics (ITC) -TΔS / Thermodynamics (ITC) ΔG / Thermodynamics (ITC) ΔH: unit: kcal/mol"}, "T. brucei proteome": {"tested_on": "T. brucei proteome", "experiment": "Label-free quantitative proteomics", "format": "cell-based, Trypanosoma brucei", "description": "Trypanosomes treated or not with 2 µM 7-CN-7-C-Ino (time course: 0 h, 6 h, 12 h) were washed twice in phosphate buffered saline (PBS) and lysed in Laemmli sample buffer to a concentration of 2.5×10^5 cells µl -1. Protein concentration was determined by Colloidal Coomassie Blue staining and densitometry. 20 µg of protein were loaded on a 10% acrylamide SDS-PAGE gel. Migration was stopped when samples had entered the resolving gel and proteins were visualized by Colloidal Coomassie Blue staining. Each SDS-PAGE band was cut into 1 mm × 1 mm gel pieces and further processed as described previously 26.\nOnline nanoLC-MS/MS analyses were performed using an Ultimate 3000 RSLC Nano-UPHLC system (Thermo Scientific, USA) coupled to a nanospray Q-Exactive hybrid quadrupole-Orbitrap mass spectrometer (Thermo Scientific, USA). 1 µg of each peptide extract was loaded on a 300 µm ID x 5 mm PepMap C18 precolumn (Thermo Scientific, USA) at a flow rate of 20 µl min -1. After a 3 min desalting step, peptides were separated on a 75 µm ID x 25 cm C 18 Acclaim PepMap® RSLC column (Thermo Scientific, USA) with a 4-40% linear gradient of solvent B (0.1% formic acid in 80% ACN) in 108 min. The separation flow rate was set at 300 nl min-1. The mass spectrometer operated in positive ion mode at a 1.8 kV needle voltage. Data was acquired using Xcalibur 3.1 software in a data-dependent mod e. MS scans (m/z 300-1,600) were recorded at a resolution of R = 70,000 (@ m/z 200) and an AGC target of 3×10 6 ions collected within 100 ms. Dynamic exclusion was set to 30 s and top 12 ions were selected from fragmentation in HCD mode. MS/MS scans with a target value of 1×10 5 ions"}, "[3]": {"target": "T. brucei PKAR-PKAC1 holoenzyme (Trypanosoma brucei, UniProt Q9GU80)", "sequence (Q38DR5 entry or part of it)": "as the sequence (Q38DR5 entry or part of it, further chain) above", "experiment": "biochemical", "format": "biochemical", "details": "for In vitro kinase assay: technical replicates"}, "[4]": {"tested_on": "RXXS*/T* site phosphorylation", "experiment": "Western blot of global RXXS*/T* site phosphorylation (phospho-PKA substrate antibody)", "format": "cell-based, Trypanosoma brucei", "details": "wild type, 2 µM, 10 min"}, "[5]": {"details": "treated (Act) vs control (Crtl), significant, FDR ≤ 0.05, s0=2, 4 replicates"}, "[6]": {"details": "WT trypanosomes, 12 hours treatment vs untreated, LFQ, three independent replicates"}},
  "note": "Several values for one entry are separate records, joined by “and”; a condition that tells them apart may be missing. Equal entries are not always repeated.",
  "data": [
    {"smiles": "N#Cc1cn([C@@H]2O[C@H](CO)[C@@H](O)[C@H]2O)c2ncnc(O)c12", "note": "[7-CN-7-C-Ino, 7-Cyano-7-deazainosine]", "values": [
      {"measurement": "downregulated phosphosites (number)", "setting": "[1]; 8 µM, 15 min", "value": 84},
      {"measurement": "downregulated phosphosites containing PKA motifs", "setting": "[1]; 8 µM, 15 min", "value": 19, "unit": "%"},
      {"measurement": "upregulated phosphosites containing PKA motifs", "setting": "[1]; 8 µM, 15 min", "value": 77, "unit": "%"},
      {"measurement": "significantly upregulated phosphosites (number)", "setting": "[1]; 8 µM, 15 min, FDR ≤ 0.05, s0 = 2", "value": 642},
      {"measurement": "Difference, phosphopeptide Tb11.v5.1036.1 gamma-tubulin complex subunit, putative, S120", "setting": "[1]; [5]", "value": 3.988},
      {"measurement": "Difference, phosphopeptide Tb927.10.630 hypothetical protein, conserved, S331", "setting": "[1]; [5]", "value": 2.868},
      {"measurement": "Difference, phosphopeptide Tb927.10.8410 hypothetical protein, conserved, S234", "setting": "[1]; [5]", "value": 2.478},
      {"measurement": "VASP phosphorylation in PKAC3 deletion + PKAC1/2 RNAi cell line, in words", "setting": "T. brucei PKA; 4 µM, 15 min", "value": "undetectable"},
      {"measurement": "EC50", "setting": "T. brucei PKA; read-out: EC50 in vivo PKA assay, VASP reporter, 15 min treatment, mean ± SD", "value": "838 ± 139", "unit": "nM"},
      {"measurement": "IC50", "setting": "[2]; 72 h, read-out: IC50 growth pkar KO", "value": "≥ 125000", "unit": "nM"},
      {"measurement": "EC50", "setting": "[2]; read-out: EC50, Alamar blue cell viability assay, KO, individual replicate results, pkar KO cells, fit ambiguous, bound given in µM", "value": "> 125", "unit": "µM"},
      {"measurement": "binding to purified human PKARIα, in words", "setting": "human PKARIα", "value": "did not bind"},
      {"measurement": "Kd", "setting": "T. brucei PKAR(199–499); 298 K, mean ± SD, n=3, read-out: KD in vitro binding to PKAR (ITC)", "value": "8 ± 2", "unit": "nM"},
      {"measurement": "−TΔS (entropic component of binding)", "setting": "T. brucei PKAR(199–499); ITC, mean", "value": -2.3, "unit": "kcal/mol"},
      {"measurement": "Thermodynamics (ITC) -TΔS", "setting": "T. brucei PKAR(199–499); independent replicates", "value": "-2.82 and -2.13 and -1.91"},
      {"measurement": "Thermodynamics (ITC) ΔG", "setting": "T. brucei PKAR(199–499); independent replicates", "value": "-11.3 and -10.9 and -11"},
      {"measurement": "Thermodynamics (ITC) ΔH", "setting": "T. brucei PKAR(199–499); independent replicates", "value": "-8.48 and -8.8 and -9.1"},
      {"measurement": "Molar ratio of binding (ITC)", "setting": "T. brucei PKAR(199–499); ligand to protein, mean ± SD, n=3", "value": "2 ± 0.2"},
      {"measurement": "higher binding affinity to PKAR compared to Toyo", "setting": "T. brucei PKAR(199–499); ratio of KD", "value": 7, "unit": "fold"},
      {"measurement": "fold regulation KO12 vs KO0 (up/down), Tb927.2.5820 hypothetical protein", "setting": "T. brucei proteome; PKAR knock out trypanosomes, 12 hours treatment vs untreated, LFQ, three independent replicates", "value": "1.69 ± 0.28", "unit": "fold"},
      {"measurement": "fold regulation WT12 vs WT0 (up/down), Tb927.10.12510 P-type H+-ATPase", "setting": "T. brucei proteome; [6]", "value": "0.60 ± 0.03", "unit": "fold"},
      {"measurement": "fold regulation WT12 vs WT0 (up/down), Tb927.10.2440 Metacaspase-4", "setting": "T. brucei proteome; [6]", "value": "0.65 ± 0.03", "unit": "fold"},
      {"measurement": "fold regulation WT12 vs WT0 (up/down), Tb927.10.8440 glucose transporter", "setting": "T. brucei proteome; [6]", "value": "1.56 ± 0.16", "unit": "fold"},
      {"measurement": "fold regulation WT12 vs WT0 (up/down), Tb927.11.14750 PSP1 C-terminal conserved region", "setting": "T. brucei proteome; [6]", "value": "0.52 ± 0.04", "unit": "fold"},
      {"measurement": "fold regulation WT12 vs WT0 (up/down), Tb927.2.5820 hypothetical protein", "setting": "T. brucei proteome; [6]", "value": "1.82 ± 0.31", "unit": "fold"},
      {"measurement": "fold regulation WT12 vs WT0 (up/down), Tb927.4.4310 Nucleoporin NUP64", "setting": "T. brucei proteome; [6]", "value": "0.65 ± 0.05", "unit": "fold"},
      {"measurement": "fold regulation WT12 vs WT0 (up/down), Tb927.7.3450 I/6 autoantigen", "setting": "T. brucei proteome; [6]", "value": "1.58 ± 0.04", "unit": "fold"},
      {"measurement": "fold regulation WT12 vs WT0 (up/down), Tb927.7.7520;Tb927.7.7530 receptor-type adenylate cyclase GRESAG 4", "setting": "T. brucei proteome; [6]", "value": "0.65 ± 0.02", "unit": "fold"},
      {"measurement": "fold regulation WT12 vs WT0 (up/down), Tb927.8.6760 IgE-dep. histamine-releasing factor", "setting": "T. brucei proteome; [6]", "value": "0.66 ± 0.01", "unit": "fold"},
      {"measurement": "fold regulation WT12 vs WT0 (up/down), Tb927.8.7780 hypothetical protein", "setting": "T. brucei proteome; [6]", "value": "1.55 ± 0.08", "unit": "fold"},
      {"measurement": "fold regulation WT12 vs WT0 (up/down), Tb927.9.10100 hypothetical protein", "setting": "T. brucei proteome; [6]", "value": "0.53 ± 0.02", "unit": "fold"},
      {"measurement": "fold regulation WT12 vs WT0 (up/down), Tb927.9.11100 cAMP-dependent protein kinase catalytic subunit 1", "setting": "T. brucei proteome; [6]", "value": "0.36 ± 0.01", "unit": "fold"},
      {"measurement": "fold regulation WT12 vs WT0 (up/down), Tb927.9.12380 Histidine phosphatase superfamily (branch 1)", "setting": "T. brucei proteome; [6]", "value": "0.48 ± 0.11", "unit": "fold"},
      {"measurement": "fold regulation WT12 vs WT0 (up/down), Tb927.9.2670 Engulfment and cell motility domain-containing protein", "setting": "T. brucei proteome; [6]", "value": "1.70 ± 0.08", "unit": "fold"},
      {"measurement": "significantly regulated proteins, in words", "setting": "T. brucei proteome; wild type, 6 h post induction", "value": "No significantly regulated proteins"},
      {"measurement": "significantly regulated proteins (number)", "setting": "T. brucei proteome; wild type, 12 h post induction, ≥[…], p ≤ 0.05", "value": 14},
      {"measurement": "In vitro kinase assay", "setting": "[3]; 0.00014 µM", "value": "0.05 U/ml and 0.04 U/ml (2×)"},
      {"measurement": "In vitro kinase assay", "setting": "[3]; 0.00041 µM", "value": 0.05, "unit": "U/ml"},
      {"measurement": "In vitro kinase assay", "setting": "[3]; 0.00123 µM", "value": "0.08 U/ml and 0.07 U/ml (2×)"},
      {"measurement": "In vitro kinase assay", "setting": "[3]; 0.0037 µM", "value": 0.12, "unit": "U/ml"},
      {"measurement": "In vitro kinase assay", "setting": "[3]; 0.01111 µM", "value": "0.16 U/ml (2×) and 0.18 U/ml"},
      {"measurement": "In vitro kinase assay", "setting": "[3]; 0.03333 µM", "value": "0.2 U/ml and 0.19 U/ml (2×)"},
      {"measurement": "In vitro kinase assay", "setting": "[3]; 0.1 µM", "value": "0.18 U/ml and 0.17 U/ml and 0.19 U/ml"},
      {"measurement": "In vitro kinase assay", "setting": "[3]; 0.3 µM", "value": "0.17 U/ml and 0.2 U/ml and 0.16 U/ml"},
      {"measurement": "higher activation potency on purified holoenzyme compared to Toyo", "setting": "[3]; ratio of EC50", "value": 36, "unit": "fold"},
      {"measurement": "increase in global RXXS*/T* site phosphorylation", "setting": "[4]", "value": "3–4 fold"}
    ]}
  ]
}
